Assays:
[1] = tested on: PC9BrM3 and H2030BrM3 brain metastasis lung cancer cell lines; assay: Boyden chamber (transwell) invasion assay; assay type: cell-based; conditions: Homo sapiens, H2030-BrM3; LON 100 μM alone; read-out: inhibitory effect on invasion when used alone
Description: Mito-LON inhibits migration and invasion of brain metastatic human lung cancer cells. To investigate the potential of Mito-LON and LON for lung cancer metastasis, we first tested its effects in vitro via the Boyden chamber invasion assay using PC9BrM3 and H2030BrM3 brain metastasis lung cancer cell lines.

H2030BrM3 cells [2] = assay: Cell proliferation, IncuCyte Live-Cell Imaging Analyzer (cell confluence); assay type: cell-based; conditions: Homo sapiens, H2030-BrM3; H2030BrM3 cells, IncuCyte, FIG. 14; read-out: IC50, cell proliferation
Protocol: (§1) In contrast, Mito-LON (1.2-2.7 μM) targets mitochondrial complexes I and II (FIG. 9); its mitochondrial effects are supported by the compartment-selective oxidation of mitochondrial Prx3 (FIG. 13). The anti-proliferative effects of Mito-LON and LON were compared in H2030BrM3 cells.

Pancreatic cancer cells = assay: Anti-proliferative effects in pancreatic cancer cells (number of cells over time); assay type: cell-based, human; conditions: Pancreatic cancer cell; in vitro; b60 words: cancer cells (human pancreatic cancer, lung cancer and brain metastasis); read-out: IC50, inhibiting the proliferation of cancer cells
Protocol: Pancreatic cancer cells were treated with either LND or Mito-LND at varying concentrations and the number of cells was assayed over time.

[3] = at clinically relevant concentrations (<130 μM); cited from earlier work
H2030BrM3 cells [4] = assay: Cellular ROS production, HPLC-based analysis of hydroethidine (HE) oxidation; assay type: cell-based, human; conditions: 200 μM, H2030BrM3 cells
Description: Inhibition of mitochondrial respiration results in increased O2^⋅− and other oxidants.

[5] = patients; cited from earlier work
[6] = tested on: mitochondrial complexes I and II; assay: Inhibition of mitochondrial complexes I and II, stated jointly; assay type: cell-based, human
Description: LON and Mito-LON inhibit mitochondrial complex I activity. Mito-LON inhibited cellular respiration (oxygen consumption rate, OCR) at >100-fold lower concentration than LON in intact lung cancer cells (FIG. 9). Both basal respiration and the response to mitochondrial stressors (oligomycin, dinitrophenol) were diminished by Mito-LON (not shown). To investigate the mechanism of mitochondrial inhibition, we measured the activity of mitochondrial complexes in H2030BrM3 cells (NSCLC cell line). The cell membrane was permeabilized, and OCR was measured upon addition of substrates and inhibitors of mitochondrial complexes I-IV (FIG. 9A). These studies established the optimal use of permeabilized cells for complex activity assays.^54 Next, cells were pretreated with LON and Mito-LON for 24 h and experiments performed as in FIG. 9A. […] We hypothesize that inhibition of mitochondrial complexes I and II is the predominant mechanism for antiproliferative effects of Mito-LON on lung cancer cells.

[7] = tested on: H2030BrM3 orthotopic lung adenocarcinoma in nude mice; assay: Orthotopic lung tumor mouse model; assay type: in vivo; conditions: 7.5 μmol/kg oral gavage 5 times/wk for 3 wks, nude mice
Protocol: Inhibitory effects of Mito-LON in an orthotopic lung tumor mouse model. We conducted a pilot study using an orthotopic model of lung adenocarcinoma (H2030BrM3 cells) in nude mice. Cells (1×10^6 cells/50 μg of growth factor-reduced Matrigel in 50 μL of RPMI-1640) were injected into the lung. One week after injection, mice were treated with the same dose of LON or Mito-LON (7.5 μmol/kg), or vehicle (corn oil), by oral gavage 5 times/wk for 3 wks.

HK2 = HK2 protein levels and mRNA expression in lung cancer lines; assay type: cell-based, human
Protocol: as §1
Role of HK2 and additional possible signaling events that contribute to the effects of Mito-LON. […] This could contribute to their effects as many cancers have constitutive ERK activation which promotes survival and proliferation, and ERK1 can play an important role in regulating mitochondrial activity, apoptosis, proliferation and migration. […] AKT is another pro-survival factor that is constitutively activated (phosphorylated) in many cancers.

IC50 (H2030BrM3 cells [2]): 140 µM | IC50 (Pancreatic cancer cells): 327 µM | IC50 (HK2; FIG. 17, read-out: IC50, ability to decrease HK2 levels): 100 to 150 µM
SMILES: O=C(O)c1nn(Cc2ccc(Cl)cc2Cl)c2ccccc12 [LON, 1-(2,4-dichlorobenzyl)-1H-indazole-3-carboxylic acid, reference compound]
inhibition at 100 µM [1]: < 10% | effectiveness by itself in vitro [3]: only moderately effective | intracellular levels of 2-OH-E+ (superoxide-specific product of HE oxidation) (H2030BrM3 cells [4]): increase | typical peak plasma levels [5]: 17 to 127 µM | concentration at which effects on complex I and II occur [6]: ca. 400 μM | IC50 ([6]; pretreatment of H2030BrM3 cells, read-out: IC50, inhibition of complex I and II): ~400 µM | efficacy in orthotopic lung tumor model [7]: not effective | HK2 levels (HK2; both lung cancer lines, within 3-6 h): decreased HK2 levels | decrease of HK2 mRNA expression (HK2; not shown): > 80%

Reference: patent publication US11352382B2, “Mito-lonidamine, compositions and methods of use” (THE MEDICAL COLLEGE OF WISCONSIN, INC., priority 2018, dated 2022)
